{
  "source": "ChEMBL document CHEMBL3885861",
  "about": "“Open TG-GATES”",
  "species_on_record": "Rattus norvegicus",
  "assay": "Open TG-GATES - Regimen: Daily Repeat",
  "type": "toxicity, organism-based, Sprague-Dawley",
  "design": "regimen Daily Repeat, gender Male, age 6 weeks",
  "settings": "in vivo, po, 10 mg/kg, route gavage, dose level Low; for APTT / Bas / Eos / Fbg / Hb / Ht / Lym / MCH / MCHC / MCV / Mono / Neu / PT / Plat / RBC / Ret / WBC: tissue Blood",
  "key": {"[1]": {"settings": "72 h, tissue Kidney, time 3 day"}, "[2]": {"settings": "72 h, tissue Plasma, time 3 day"}},
  "data": [
    {"smiles": "Nc1ccc(Cc2ccc(N)cc2)cc1", "values": [
      {"measurement": "TERMINAL_BW", "setting": "72 h, time 3 day", "value": 237.7, "unit": "g"},
      {"measurement": "APTT", "setting": "72 h, time 3 day", "value": 13.9, "unit": "s"},
      {"measurement": "Bas", "setting": "72 h, time 3 day", "value": 0.2, "unit": "%"},
      {"measurement": "Eos", "setting": "72 h, time 3 day", "value": 0.8, "unit": "%"},
      {"measurement": "Fbg", "setting": "72 h, time 3 day", "value": 280.2, "unit": "mg/dL"},
      {"measurement": "Hb", "setting": "72 h, time 3 day", "value": 13.3, "unit": "g/dL"},
      {"measurement": "Ht", "setting": "72 h, time 3 day", "value": 38.9, "unit": "%"},
      {"measurement": "Lym", "setting": "72 h, time 3 day", "value": 75, "unit": "%"},
      {"measurement": "MCH", "setting": "72 h, time 3 day", "value": 21.1, "unit": "pg"},
      {"measurement": "MCHC", "setting": "72 h, time 3 day", "value": 34.2, "unit": "%"},
      {"measurement": "MCV", "setting": "72 h, time 3 day", "value": 61.5, "unit": "fL"},
      {"measurement": "Mono", "setting": "72 h, time 3 day", "value": 2.4, "unit": "%"},
      {"measurement": "Neu", "setting": "72 h, time 3 day", "value": 20.8, "unit": "%"},
      {"measurement": "PT", "setting": "72 h, time 3 day", "value": 11.9, "unit": "s"},
      {"measurement": "Plat", "setting": "72 h, time 3 day", "value": 149.6, "unit": "x10_4/uL"},
      {"measurement": "RBC", "setting": "72 h, time 3 day", "value": 632.8, "unit": "x10_4/ul"},
      {"measurement": "Ret", "setting": "72 h, time 3 day", "value": 5.9, "unit": "%"},
      {"measurement": "WBC", "setting": "72 h, time 3 day", "value": 114.1, "unit": "x10_2/uL"},
      {"measurement": "KIDNEY_L", "setting": "[1]", "value": 1, "unit": "g"},
      {"measurement": "KIDNEY_R", "setting": "[1]", "value": 1, "unit": "g"},
      {"measurement": "KIDNEY_TOTAL", "setting": "[1]", "value": 1.9, "unit": "g"},
      {"measurement": "LIVER", "setting": "72 h, tissue Liver, time 3 day", "value": 11.4, "unit": "g"},
      {"measurement": "A/G", "setting": "[2]", "value": 0.8},
      {"measurement": "ALP", "setting": "[2]", "value": 1752.4, "unit": "IU/L"},
      {"measurement": "ALT", "setting": "[2]", "value": 41, "unit": "IU/L"},
      {"measurement": "AST", "setting": "[2]", "value": 68.6, "unit": "IU/L"},
      {"measurement": "BUN", "setting": "[2]", "value": 16.2, "unit": "mg/dL"},
      {"measurement": "CRE", "setting": "[2]", "value": 0.2, "unit": "mg/dL"},
      {"measurement": "Ca", "setting": "[2]", "value": 10.9, "unit": "mg/dL"},
      {"measurement": "Cl", "setting": "[2]", "value": 106.6, "unit": "meq/L"},
      {"measurement": "DBIL", "setting": "[2]", "value": 0.018, "unit": "mg/dL"},
      {"measurement": "GLC", "setting": "[2]", "value": 181.4, "unit": "mg/dL"},
      {"measurement": "IP", "setting": "[2]", "value": 7.7, "unit": "mg/dL"},
      {"measurement": "K", "setting": "[2]", "value": 4.1, "unit": "meq/L"},
      {"measurement": "LDH", "setting": "[2]", "value": 63, "unit": "IU/L"},
      {"measurement": "Na", "setting": "[2]", "value": 143.6, "unit": "meq/L"},
      {"measurement": "PL", "setting": "[2]", "value": 146.2, "unit": "mg/dL"},
      {"measurement": "RALB", "setting": "[2]", "value": 2.7, "unit": "g/dL"},
      {"measurement": "TBIL", "setting": "[2]", "value": 0.032, "unit": "mg/dL"},
      {"measurement": "TC", "setting": "[2]", "value": 78.4, "unit": "mg/dL"},
      {"measurement": "TG", "setting": "[2]", "value": 114.4, "unit": "mg/dL"},
      {"measurement": "TP", "setting": "[2]", "value": 6, "unit": "g/dL"},
      {"measurement": "gamma-GTP", "setting": "[2]", "value": 1, "unit": "IU/L"},
      {"measurement": "TERMINAL_BW", "setting": "[…], time 7 day", "value": 279.3, "unit": "g"},
      {"measurement": "TERMINAL_BW", "setting": "[…], time 14 day", "value": 335.7, "unit": "g"},
      {"measurement": "TERMINAL_BW", "setting": "[…], time 28 day", "value": 440.9, "unit": "g"},
      {"measurement": "APTT", "setting": "[…], time 7 day", "value": 13.6, "unit": "s"},
      {"measurement": "Bas", "setting": "[…], time 7 day", "value": 0.2, "unit": "%"},
      {"measurement": "Eos", "setting": "[…], time 7 day", "value": 0.4, "unit": "%"},
      {"measurement": "Fbg", "setting": "[…], time 7 day", "value": 279.2, "unit": "mg/dL"},
      {"measurement": "Hb", "setting": "[…], time 7 day", "value": 13.4, "unit": "g/dL"},
      {"measurement": "Ht", "setting": "[…], time 7 day", "value": 39.2, "unit": "%"},
      {"measurement": "Lym", "setting": "[…], time 7 day", "value": 69.8, "unit": "%"},
      {"measurement": "MCH", "setting": "[…], time 7 day", "value": 20.6, "unit": "pg"},
      {"measurement": "MCHC", "setting": "[…], time 7 day", "value": 34.1, "unit": "%"},
      {"measurement": "MCV", "setting": "[…], time 7 day", "value": 60.6, "unit": "fL"},
      {"measurement": "Mono", "setting": "[…], time 7 day", "value": 2.8, "unit": "%"},
      {"measurement": "Neu", "setting": "[…], time 7 day", "value": 26.2, "unit": "%"},
      {"measurement": "PT", "setting": "[…], time 7 day", "value": 11.3, "unit": "s"},
      {"measurement": "Plat", "setting": "[…], time 7 day", "value": 144.1, "unit": "x10_4/uL"},
      {"measurement": "RBC", "setting": "[…], time 7 day", "value": 648, "unit": "x10_4/ul"},
      {"measurement": "Ret", "setting": "[…], time 7 day", "value": 5.5, "unit": "%"},
      {"measurement": "WBC", "setting": "[…], time 7 day", "value": 107.7, "unit": "x10_2/uL"},
      {"measurement": "APTT", "setting": "[…], time 14 day", "value": 15.6, "unit": "s"},
      {"measurement": "Bas", "setting": "[…], time 14 day", "value": 0, "unit": "%"},
      {"measurement": "Eos", "setting": "[…], time 14 day", "value": 0.8, "unit": "%"},
      {"measurement": "Fbg", "setting": "[…], time 14 day", "value": 283.8, "unit": "mg/dL"},
      {"measurement": "Hb", "setting": "[…], time 14 day", "value": 14.1, "unit": "g/dL"},
      {"measurement": "Ht", "setting": "[…], time 14 day", "value": 40.9, "unit": "%"},
      {"measurement": "Lym", "setting": "[…], time 14 day", "value": 78, "unit": "%"},
      {"measurement": "MCH", "setting": "[…], time 14 day", "value": 20.6, "unit": "pg"},
      {"measurement": "MCHC", "setting": "[…], time 14 day", "value": 34.6, "unit": "%"},
      {"measurement": "MCV", "setting": "[…], time 14 day", "value": 59.5, "unit": "fL"},
      {"measurement": "Mono", "setting": "[…], time 14 day", "value": 1.8, "unit": "%"},
      {"measurement": "Neu", "setting": "[…], time 14 day", "value": 19, "unit": "%"},
      {"measurement": "PT", "setting": "[…], time 14 day", "value": 11.5, "unit": "s"},
      {"measurement": "Plat", "setting": "[…], time 14 day", "value": 146.2, "unit": "x10_4/uL"},
      {"measurement": "RBC", "setting": "[…], time 14 day", "value": 687, "unit": "x10_4/ul"},
      {"measurement": "Ret", "setting": "[…], time 14 day", "value": 4.3, "unit": "%"},
      {"measurement": "WBC", "setting": "[…], time 14 day", "value": 125.5, "unit": "x10_2/uL"},
      {"measurement": "APTT", "setting": "[…], time 28 day", "value": 16.1, "unit": "s"},
      {"measurement": "Bas", "setting": "[…], time 28 day", "value": 0.2, "unit": "%"},
      {"measurement": "Eos", "setting": "[…], time 28 day", "value": 1, "unit": "%"},
      {"measurement": "Fbg", "setting": "[…], time 28 day", "value": 270.4, "unit": "mg/dL"},
      {"measurement": "Hb", "setting": "[…], time 28 day", "value": 14.7, "unit": "g/dL"},
      {"measurement": "Ht", "setting": "[…], time 28 day", "value": 41.8, "unit": "%"}
    ]}
  ]
}
